Results: ChEMBL document CHEMBL5352409, “Design, synthesis, and pharmacological evaluation of 2-(1-(1,3,4-thiadiazol-2-yl)piperidin-4-yl)ethan-1-ol analogs as novel glutaminase 1 inhibitors” (Eur J Med Chem, 2022)

How the values were obtained:
HCT-116 = experiment: cells; settings: Homo sapiens
A549 = experiment: Antiproliferative activity against human A549 cells assessed as reduction in cell viability; assay type: functional, cell-based
[1] = biological target: T1, Glutaminase kidney isoform, mitochondrial (Homo sapiens, UniProt O94925); experiment: Inhibition of GLS1 (unknown origin)
T1 sequence (O94925 whole entry): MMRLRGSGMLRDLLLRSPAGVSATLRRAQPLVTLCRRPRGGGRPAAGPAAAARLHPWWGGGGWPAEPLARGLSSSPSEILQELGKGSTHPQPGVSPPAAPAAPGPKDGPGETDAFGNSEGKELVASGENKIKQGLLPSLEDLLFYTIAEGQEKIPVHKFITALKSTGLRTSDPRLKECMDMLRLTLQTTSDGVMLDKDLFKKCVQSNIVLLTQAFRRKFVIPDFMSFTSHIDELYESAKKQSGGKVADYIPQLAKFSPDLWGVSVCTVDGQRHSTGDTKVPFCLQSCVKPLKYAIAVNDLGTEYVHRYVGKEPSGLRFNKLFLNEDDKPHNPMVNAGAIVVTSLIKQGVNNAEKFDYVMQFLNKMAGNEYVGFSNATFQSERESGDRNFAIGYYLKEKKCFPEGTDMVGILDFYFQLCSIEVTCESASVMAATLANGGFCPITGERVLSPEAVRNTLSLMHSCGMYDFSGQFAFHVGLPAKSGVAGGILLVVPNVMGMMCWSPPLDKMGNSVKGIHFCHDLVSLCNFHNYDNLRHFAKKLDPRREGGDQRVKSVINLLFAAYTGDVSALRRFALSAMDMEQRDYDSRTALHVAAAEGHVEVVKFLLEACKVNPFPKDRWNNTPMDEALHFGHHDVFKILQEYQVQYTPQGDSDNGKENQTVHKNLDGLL

Row | Compound | IC50 (HCT-116) | IC50 (A549) | IC50 [1]
1 | O=C(Cc1ccccc1)Nc1nnc(CCc2ccc(C(=O)N3CCCCC3)cc2)s1 | > 10 µM | > 10 µM | > 10 µM
2 | O=C(Cc1ccccc1)Nc1nnc(N2CCN(Cc3ccc(C(=O)NCCc4ccc(F)cc4)cc3)CC2)s1 | 0.57 µM | 2.04 µM | 0.3 µM
3 | CN1CCN(c2ccc(C(=O)Nc3cccc(CN4CCN(c5nnc(NC(=O)Cc6ccccc6)s5)CC4)c3)cc2)CC1 | 1.53 µM | 1.05 µM | 0.089 µM
4 | CN1CCC(CNC(=O)c2cccc(CN3CCN(c4nnc(NC(=O)Cc5ccccc5)s4)CC3)c2)CC1 | 1.56 µM | 3.96 µM | 0.432 µM
5 | O=C(Cc1ccccc1)Nc1nnc(N2CCC(CCOCc3cccc(C(=O)NCC4CCN(Cc5cc(F)cc(F)c5)CC4)c3)CC2)s1 | 0.69 µM | 0.98 µM | 0.126 µM
6 | O=C(Cc1ccccc1)Nc1nnc(N2CCN(Cc3cccc(C(=O)NCc4ccc(C(F)(F)F)cc4)c3)CC2)s1 | > 10 µM | > 10 µM | 
7 | O=C(Cc1ccccc1)Nc1nnc(N2CCN(Cc3ccc(C(=O)NCCN4CCCCC4)cc3)CC2)s1 | 1.09 µM | 3.28 µM | 0.162 µM
8 | O=C(Cc1ccccc1)Nc1nnc(N2CCN(Cc3ccc(C(=O)NC4CCCC4)cc3)CC2)s1 | 1.49 µM | 1.09 µM | 0.132 µM
9 | O=C(Cc1ccccc1)Nc1nnc(N2CCN(Cc3ccc(C(=O)NCCNc4ccccc4)cc3)CC2)s1 | 1.09 µM | 1.22 µM | 0.106 µM
10 | CC(C)CNC(=O)c1ccc(CN2CCN(c3nnc(NC(=O)Cc4ccccc4)s3)CC2)cc1 | 1.09 µM | 2.53 µM | 0.146 µM
11 | CN1CCN(c2cccc(C(=O)Nc3ccc(CN4CCN(c5nnc(NC(=O)Cc6ccccc6)s5)CC4)cc3)c2)CC1 | 1.26 µM | 1.05 µM | 0.123 µM
12 | O=C(Cc1ccccc1)Nc1nnc(N2CCC(CCOCc3cccc(C(=O)N4CCN(c5cccc(F)c5)CC4)c3)CC2)s1 | 8.52 µM | 7.42 µM | 0.546 µM
13 | O=C(Cc1ccccc1)Nc1nnc(N2CCN(Cc3cccc(C(=O)NCCN4CCCCC4)c3)CC2)s1 | 1.67 µM | 2.03 µM | 0.212 µM
14 | CC(C)c1ccc(CNC(=O)c2cccc(CN3CCN(c4nnc(NC(=O)Cc5ccccc5)s4)CC3)c2)cc1 | > 10 µM | > 10 µM | 
15 | O=C(Cc1ccccc1)Nc1nnc(N2CCN(Cc3ccc(C(=O)N4CCC(CO)CC4)cc3)CC2)s1 | 3.92 µM | 4.06 µM | 0.363 µM
16 | Cc1cccc(CN(C)C(=O)c2ccc(CN3CCN(c4nnc(NC(=O)Cc5ccccc5)s4)CC3)cc2)c1 | > 10 µM | > 10 µM | > 1 µM
17 | O=C(Cc1ccccc1)Nc1cccc(CN2CCN(c3nnc(NC(=O)Cc4ccccc4)s3)CC2)c1 | > 10 µM | > 10 µM | 
18 | C=CCCC(=O)N1CCC(CNC(=O)c2cccc(COCCC3CCN(c4nnc(NC(=O)Cc5ccccc5)s4)CC3)c2)CC1 | 4.03 µM | 3.52 µM | 0.35 µM
19 | CN1CCN(c2ccc(NC(=O)c3ccc(CN4CCN(c5nnc(NC(=O)Cc6ccccc6)s5)CC4)cc3)cc2)CC1 | 0.67 µM | 1.28 µM | 0.25 µM
20 | CCN1CCC(NC(=O)c2ccc(COC3CCN(c4nnc(NC(=O)Cc5ccccc5)s4)CC3)cc2)CC1 | > 10 µM | > 10 µM | 2.55 µM
21 | CN1CCN(c2cccc(C(=O)Nc3cccc(CN4CCN(c5nnc(NC(=O)Cc6ccccc6)s5)CC4)c3)c2)CC1 | 1.19 µM | 0.98 µM | 0.077 µM
22 | CCCNC(=O)c1ccc(CCc2nnc(NC(=O)Cc3ccccc3)s2)cc1 | > 10 µM | > 10 µM | > 10 µM
23 | O=C(Cc1ccccc1)Nc1nnc(N2CCN(Cc3ccc(C(=O)NCc4cccc(C(F)(F)F)c4)cc3)CC2)s1 | 1.49 µM | 1.85 µM | 0.253 µM
24 | CN1CCC(CNC(=O)c2ccc(CN3CCN(c4nnc(NC(=O)Cc5ccccc5)s4)CC3)cc2)CC1 | > 10 µM | > 10 µM | > 10 µM
25 | O=C(Cc1ccccc1)Nc1nnc(N2CCN(Cc3cccc(C(=O)NCCc4ccc(F)cc4)c3)CC2)s1 | > 10 µM | > 10 µM | 
26 | O=C(Cc1ccccc1)Nc1ccc(CN2CCN(c3nnc(NC(=O)Cc4ccccc4)s3)CC2)cc1 | > 10 µM | > 10 µM | 
27 | O=C(Cc1ccccc1)Nc1nnc(N2CCN(Cc3ccc(C(=O)NCCN4CCCC4)cc3)CC2)s1 | 1.66 µM | 3.65 µM | 0.163 µM
28 | CCNCCNC(=O)c1ccc(CN2CCN(c3nnc(NC(=O)Cc4ccccc4)s3)CC2)cc1 | 1.28 µM | 2.26 µM | 0.221 µM
29 | O=C(Cc1ccccc1)Nc1nnc(CCc2ccc(C(=O)NCCN3CCCC3)cc2)s1 | > 10 µM | > 10 µM | > 10 µM
30 | Cc1ccc(NC(=O)c2ccc(CN3CCN(c4nnc(NC(=O)Cc5ccccc5)s4)CC3)cc2)cc1 | 1.08 µM | 1.68 µM | 0.212 µM

Now from value to compound:

Row | IC50 (HCT-116) | IC50 (A549) | IC50 [1] | Compound
31 | 9.03 µM | 7.51 µM | 0.621 µM | CCN(CC)CCNC(=O)c1cccc(COCCC2CCN(c3nnc(NC(=O)Cc4ccccc4)s3)CC2)c1
32 | > 10 µM | > 10 µM | > 10 µM | COCCNC(=O)c1ccc(CN2CCN(c3nnc(NC(=O)Cc4ccccc4)s3)CC2)cc1
33 | > 10 µM | > 10 µM |  | CC(C)N1CCC(CNC(=O)c2cccc(COCCC3CCN(c4nnc(NC(=O)Cc5ccccc5)s4)CC3)c2)CC1
34 | 2.89 µM | 3.45 µM | 0.42 µM | CCCNC(=O)c1ccc(COCCC2CCN(c3nnc(NC(=O)Cc4ccccc4)s3)CC2)cc1
35 | 8.12 µM | 9.07 µM | 0.802 µM | CN1CCC(CNC(=O)c2cccc(COCCC3CCN(c4nnc(NC(=O)Cc5ccccc5)s4)CC3)c2)CC1
36 | 4.08 µM | 1.08 µM | 1.08 µM | CCCNC(=O)c1ccc(COC2CCN(c3nnc(NC(=O)Cc4ccccc4)s3)CC2)cc1
37 | 1.2 µM | 4.38 µM | 0.44 µM | CCN(CC)CCNC(=O)c1ccc(COCCC2CCN(c3nnc(NC(=O)Cc4ccccc4)s3)CC2)cc1
38 | > 10 µM | > 10 µM | > 10 µM | CN1CCC(CNC(=O)c2ccc(COC3CCN(c4nnc(NC(=O)Cc5ccccc5)s4)CC3)cc2)CC1
39 | 2.86 µM | 2.07 µM | 0.264 µM | CCN(CC)CCNC(=O)c1ccc(CN2CCN(c3nnc(NC(=O)Cc4ccccc4)s3)CC2)cc1
40 | 0.8 µM | 1.89 µM | 0.12 µM | O=C(Cc1ccccc1)Nc1nnc(N2CCC(CCOCc3ccc(C(=O)NCC4CCN(Cc5cc(F)cc(F)c5)CC4)cc3)CC2)s1
41 | 0.81 µM | 1.26 µM | 0.135 µM | Cc1ccccc1CN1CCC(CNC(=O)c2ccc(COCCC3CCN(c4nnc(NC(=O)Cc5ccccc5)s4)CC3)cc2)CC1
42 | 3.05 µM | 2.24 µM | 0.365 µM | CC(C)N1CCC(CNC(=O)c2ccc(COCCC3CCN(c4nnc(NC(=O)Cc5ccccc5)s4)CC3)cc2)CC1
43 | 0.91 µM | 1.29 µM | 0.12 µM | CCCCN1CCC(CNC(=O)c2ccc(COCCC3CCN(c4nnc(NC(=O)Cc5ccccc5)s4)CC3)cc2)CC1
44 | > 10 µM | > 10 µM | > 10 µM | CCN(CC)CCNC(=O)c1ccc(CCc2nnc(NC(=O)Cc3ccccc3)s2)cc1
45 | 3.92 µM | 2.01 µM | 0.26 µM | CCCN1CCC(CNC(=O)c2cccc(COCCC3CCN(c4nnc(NC(=O)Cc5ccccc5)s4)CC3)c2)CC1
46 | 7.05 µM | 8.52 µM | 0.555 µM | O=C(Cc1ccccc1)Nc1nnc(N2CCC(CCOCc3cccc(C(=O)NCCN4CCCCC4)c3)CC2)s1
47 | 8.95 µM | 9.68 µM | 0.489 µM | O=C(Cc1ccccc1)Nc1nnc(N2CCC(CCOCc3cccc(C(=O)NCCN4CCCC4)c3)CC2)s1
48 | 4.98 µM | 5.84 µM | 0.53 µM | CCCCNC(=O)c1ccc(COCC2CCN(c3nnc(NC(=O)Cc4ccccc4)s3)CC2)cc1
49 | 1.08 µM | 1.55 µM | 0.16 µM | CCCCN1CCC(CNC(=O)c2cccc(COCCC3CCN(c4nnc(NC(=O)Cc5ccccc5)s4)CC3)c2)CC1
50 | 1.49 µM | 2.42 µM | 0.345 µM | CCN(CC)CCNC(=O)c1cccc(CN2CCN(c3nnc(NC(=O)Cc4ccccc4)s3)CC2)c1
51 | 3.81 µM | 1.25 µM | 1.25 µM | O=C(Cc1ccccc1)Nc1nnc(N2CCC(OCc3ccc(C(=O)NCCN4CCCC4)cc3)CC2)s1
